SMILES strings stand for the structures. pIC50: −log10 of the molar value.

This assay has as its target T1, angiotensin II receptor (rat liver membranes) (Rattus norvegicus, UniProt P25095).
T1 construct: rat liver membranes; from tissue; host or cells: rat liver membranes
T1 sequence (P25095 1-359): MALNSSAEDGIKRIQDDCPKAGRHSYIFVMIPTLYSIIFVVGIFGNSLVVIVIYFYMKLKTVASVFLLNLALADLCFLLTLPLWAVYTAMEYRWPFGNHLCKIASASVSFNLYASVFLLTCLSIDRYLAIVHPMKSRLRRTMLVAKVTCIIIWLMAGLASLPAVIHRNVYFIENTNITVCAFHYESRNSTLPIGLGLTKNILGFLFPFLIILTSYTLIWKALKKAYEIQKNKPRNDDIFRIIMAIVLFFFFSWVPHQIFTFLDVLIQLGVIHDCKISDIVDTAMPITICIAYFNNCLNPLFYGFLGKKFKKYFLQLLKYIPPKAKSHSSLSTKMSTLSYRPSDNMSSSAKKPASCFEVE
Put plainly: Receptor Binding of Angiotensin II (RBAT): inhibition of tritiated angiotensin II binding to rat liver membranes. Conditions: in vitro, read-out: RBAT IC50 (concentration required to displace 50% of the specifically bound tritiated angiotensin II). Here is the method: The effectiveness of the compounds of the instant invention is determined by a test (RBAT) entitled Receptor Binding of Angiotensin II. In this in vitro test the inhibition of tritiated angiotensin II binding to rat liver membranes is measured.
*The IC50 is a concentration required to displace 50% of the specifi
bound tritiated angiotensin II.
In the case of `CCCCc1ncc(CO)n1Cc1ccc(NC(=O)[C@H](Cc2ccc(O)cc2)NC(=O)OC(C)(C)C)cc1` [Example 6, (S)-[2-[[4-[[2-butyl-5-(hydroxymethyl)-1H-imidazol-1-yl]methyl]phenyl]amino]-1-[(4-hydroxyphenyl)methyl]-2-oxoethyl]-carbamic acid, 1,1-dimethylethylester], the pIC50 was 5.35.
With `CCCCc1nc(Cl)c(CO)n1Cc1ccc(NC(=O)[C@H](Cc2ccccc2)NS(=O)(=O)N2CCOCC2)cc1` [Example 16], the pIC50 is 5.60.
`CCCCc1nc(Cl)c(CO)n1Cc1ccc(NC(=O)C(NC(=O)OCc2ccccc2)C(=O)O)cc1` (racemic) [Example 13, (RS)-3-[[4-[[2-Butyl-4-chloro-5-(hydroxymethyl)-1H-imidazol-1-yl-methyl]phenyl]amino]-3-oxo-2[(phenyl-methoxy)-carbonyl]amino]-propanoic acid]: the pIC50 is 5.00.
Turning to `CCCCc1nc(Cl)c(CO)n1Cc1ccc(NC(=O)[C@H](CC#N)NC(=O)OCc2ccccc2)cc1` [Example 5, (S)-[2-[[4-[[2-Butyl-4-chloro-5-(hydroxymethyl)-1H-imidazol-1-yl]methyl]phenyl]amino]-1-(cyanomethyl)-2-oxoethyl]-carbamic acid, phenylmethyl ester], the pIC50 is 5.52.
Consider `CCCCc1nc(Cl)c(CO)n1Cc1ccc(NC(=O)C(NC(=O)OC(C)(C)C)C(=O)O)cc1` (racemic) [Example 11], for which the pIC50 is 5.22.
`CCSc1nnc(CO)n1Cc1ccc(NC(=O)[C@H](CC(=O)O)NC(=O)OCc2ccccc2)cc1` [Example 9]: the pIC50 was less than 5.00.
The same measure for `CCCCc1nc(Cl)c(CO)n1Cc1ccc(NC(=O)[C@H](Cc2ccccc2)NS(=O)(=O)c2ccccc2)cc1` [Example 17]: 5.44; for `CCCCc1nc(Cl)c(CO)n1Cc1ccc(NC(=O)[C@H](CC(=O)OC(C)(C)C)NC(=O)OCc2ccccc2)cc1` [Example 7]: 5.40; for `CCCCc1nc(Cl)c(CO)n1Cc1ccc(NC(=O)[C@H](Cc2ccc(O)cc2)NC(=O)OC(C)(C)C)cc1` [6 (4-Chloro), (S)-[2-[[4-[[2-Butyl-4-chloro-5-(hydroxymethyl)-1H-imidazol-1-yl]methyl]phenyl]amino]-1-[(4-hydroxyphenyl)methyl]-2-oxoethyl]-carbamic acid, 1,1-dimethylethyl ester]: 5.52.
For `CCCCc1nc(Cl)c(CO)n1Cc1ccc(NC(=O)N2CCC[C@H]2C(=O)OC)cc1` [Example 18, 1-[[4-[[2-Butyl-4-chloro-5-(hydroxymethyl)-1H-imidazol-1-yl]methyl]phenyl]amino]carbonyl-2-pyrrolidinecarboxylic acid, methyl ester], the pIC50 is less than 5.00.

For the origin of these results see patent publication US5041552A, “Amino acid derivatives with angiotensin II antagonist properties” (Warner-Lambert Company, priority 1990, dated 1991).
